Experimental data published in patent publication US20220220565A1, “METHODS AND COMPOSITIONS FOR TREATING MELANOMA” (INSERM (INSTITUT NATIONAL DE LA SANTÉ ET DE LA RECHERCHE …, priority 2019, published 2022).
“Also recorded” adds a separate entry of the source.

Tests used:
1205Lu-Luc+ cells [1] = test: Experimental lung metastasis (long-term lung colonization) by bioluminescent melanoma cells; format: in vivo, nude mice
Procedure: All mouse experiments were carried out in accordance with the Institutional Animal Care and local ethics committees. For experimental lung metastasis studies, 5-week-old female nude mice (Harlan, IN, USA) were intravenously injected with 1205Lu Luc+cells (1×106) that were transduced with a non targeting shRNA lentivirus (shCTRL) or a PTX3 targeting shRNA lentivirus (shPTX3-5). Images were acquired using a Photon Imager (Biospace Lab, France) on mice injected i.p with 50mg.kg-1 D-luciferin (PerkinElmer, MA, USA). Lung metastasis was monitored and quantified using BLI [12]. In a second set of experiments, short-term lung colonization assays were performed with Cell Tracker Orange-stained 501Mel cells stably expressing PTX3 or not. Cells were intravenously injected in 5-week-old female nude mice that were sacrificed either 30 min or 24 h later. Lungs were perfused with PBS, fixed in 4% paraformaldehyde, OCT-embedded, cryosectioned, immunostained and imaged using a confocal microscope as described.

1205Lu-Luc+ cells [2] = test: In vitro cell migration of shRNA-transduced cells (Boyden chamber); format: cell-based, human; details: among shPTX3-1 to 5; data not shown
Procedure: Negative control, PTX3 siRNA duplexes were designed by Thermo Fisher Scientific. MITF (sc-35934), MYD88 (sc-35986) and TWIST1 (sc-38604) siRNAs were from Santa Cruz Biotechnology (TX, USA). IKKα, IKKβ, and TLR4 siRNAs were from Dharmacon (CO, USA). Transfection of siRNA was carried out using Lipofectamine RNAiMAX (Thermo Fisher Scientific), at a final concentration of 25 or 50 nM. Unless stated otherwise, cells were assayed 3 days post transfection. Lentiviral vectors for stable knockdown of PTX3 (NM_002852) in melanoma cells were TRC1.5-pLKO.1-puro vectors containing a s (shPTX3-1 to 5) (Genomic center, University of Minnesota, USA). Lentiviral, packaging (psPAX2) and enveloppe (pMD2.0G) vectors were transfected into HEK293T cells and virus-containing supernatant fractions were harvested after 72 h. The supernatant fractions were filtered and used to infect bioluminescent 1205Lu cells (1205Lu-Luc+) that were described before. Transduced cells were selected with 2 μg/ml puromycin for 3 weeks. The efficiency of PTX3 knockdown was assessed by immunoblotting and analysis of in vitro cell migration using modified Boyden chambers. […]
Serum-stimulated chemotaxis, invasion and transendothelial migration were monitored using modified Boyden chambers (8 μm pores, Sigma) as described before. […] Migrated cells were stained with crystal violet and counted (four fields randomly per well). […]

melanoma cells = test: Cell migration upon IKK targeting; format: cell-based, human; details: IKK targeting in melanoma cells
Procedure: (§1) Serum-stimulated chemotaxis, invasion and transendothelial migration were monitored using modified Boyden chambers (8 μm pores, Sigma) as described before. For invasion assays, the upper side of the filter was coated with 0.5 mg.ml-1 matrigel (Corning, N.Y., USA). Migrated cells were stained with crystal violet and counted (four fields randomly per well). For transendothelial migration, 105 HUVECs were grown in the upper chamber of gelatin-coated

501Mel control cells = test: Cell migration of control cells; format: cell-based, human; details: IKK inhibition or TWIST1 depletion
Procedure: as §1

[3] = system: PTX3-expressing 501Mel cells; test: PTX3-mediated cell migration; format: cell-based, human; details: data not shown
Procedure: as §1

PTX3 = PTX3 expression and secretion (immunoblot of lysates and CM); format: cell-based, human; details: 1205Lu cells treated with IKK inhibitor
Procedure: (§2) Immunohistochemistry and immunoblot analysis were performed as described before. IHC analysis was performed on melanoma tissue microarrays (US Biomax, MD, USA) using PTX3 antibody (HPA069320, Sigma-Aldrich; 1:50). For immunoblotting, the following antibodies were used at 1:1,000: SPARC (Bio-Techne), PTX3 (Enzo Life Sciences, Switzerland), HSP90, HSP60, TLR4, Fibronectin, ERK2 (Santa Cruz Biotechnology), MITF (Thermo Fisher Scientific), TWIST1 (Abcam, UK), SNAIL, phospho-IKKα/β (Ser176/180), NF-κB p65, phospho-NF-κB p65 (Ser536), I[…]B[…] (L35A5), I[…]B[…] (Ser32/36), IKKα, IKKβ, MYD88, phospho-AKT (Ser473), phospho-ERK1/2 (Thr202/Tyr204) (Cell Signaling Technology, MA, USA).

[4] = system: EMT factors TWIST1 and SNAIL; test: EMT factor expression (immunoblot); format: cell-based, human; details: IKK targeting in melanoma cells
Procedure: as §2

1205Lu cells [5] = test: Serum-stimulated migration (modified Boyden chamber / Transwell); format: cell-based, human
Procedure: as §1
(§3) Transwell inserts and treated with human TNFa (10 ng.ml-1) for 16 h. Melanoma cells were allowed to migrate for 6 h or 16 h and migrated cells were visualized and quantified as before. Pictures of five random fields were captured for quantification using NIH ImageJ analysis software. For scratch assays, melanoma cells were grown approximately 80% confluence in 6-well plates. Wounds were generated using a sterile 200 μl pipette tip across each well. Following treatment with rhPTX3 or CM, pictures of four random fields were captured using an imaging station and the number of migrated cells in wounded area was counted with NIH ImageJ analysis software.

A375 cells = test: as above; format: cell-based, human; details: siPTX3-transfected cells, rhPTX3 100 ng.ml-1
Procedure: as §1, §3

1205Lu cells [6] = test: Matrigel invasion assay; format: cell-based, human; details: siPTX3-transfected cells, rhPTX3 100 ng.ml-1
Procedure: as §1, §3

SKMel28 cells = test: In vitro scratch assay; format: cell-based, human; details: rhPTX3 added to wounded monolayers of PTX3-negative cells
Procedure: as §3

1205Lu cells [7] = test: Transendothelial migration on monolayers of TNFα-activated HUVECs; format: cell-based, human; details: rhPTX3 100 ng.ml-1, 6 h
Procedure: as §1, §3

For “shPTX3-5: lentiviral shRNA for stable knockdown of PTX3 (TRC1.5-pLKO.1-puro vector), SEQ ID NO: 1 (DNA CCGGGAGGAGCTCAGTATGTTTCATCTCGAGATGAAACATACTGAGCTCCTCTTTTTTG)”, the “arrest of injected cells into the lungs (BLI)” value (1205Lu-Luc+ cells [1]; 15 min after tail vein injection, vs shCTRL) was “equally arrested into the lungs”, the “lung colonization (BLI)” value (1205Lu-Luc+ cells [1]; during 15 days after tail vein injection, vs shCTRL) was “dramatic reduction in lung colonization” and the “reduction in experimental lung metastasis (ex vivo BLI)” value (1205Lu-Luc+ cells [1]; endpoint of the assay, stable PTX3 knockdown vs control cells) was 6 fold. The “reduction of cell migration compared to shCtrl” value (1205Lu-Luc+ cells [2]) was “most efficient in reducing cell migration”.

With `Cc1ccc2nc(NCCN)c3ncc(C)n3c2c1` [BMS345541] the cell migration (melanoma cells) was “reduced”, the “migration of control cells” value (501Mel control cells) was “also reduced” and the PTX3-mediated cell migration [3] was “reduction of PTX3-mediated cell migration”. The “autocrine production of PTX3” value (PTX3) was “impaired the autocrine production of PTX3” and the EMT factors levels [4] was “reduced EMT factors levels”.

With “recombinant PTX3: recombinant human PTX3 (Bio-Techne)” the “rescue of migration by recombinant PTX3 in cells treated with a MYD88 inhibitory peptide” value (1205Lu cells [5]; data not shown) was “failed to rescue migration”, the “rescue of migration of PTX3-depleted cells” value (1205Lu cells [5]; siPTX3-transfected cells, rhPTX3 100 ng.ml-1) was “rescued the migratory ability; also recorded: restored the migration” and the “rescue of migration of TLR4 silenced cells” value (1205Lu cells [5]; siTLR4-transfected cells stimulated with rhPTX3 for 4 h) was “ineffective to restore the migration”. The “rescue of migration of PTX3-depleted cells” value (A375 cells) was “rescued the migratory ability”, the “rescue of invasiveness of PTX3-depleted cells” value (1205Lu cells [6]) was “restored the impaired invasiveness” and the “migration in wound area” value (SKMel28 cells) was “enhanced the migration”. For the same compound, the “rescue of transendothelial migration of PTX3-depleted cells” value (1205Lu cells [7]) was “rescued”.
